Measurements from US10434085B2, “Non-aromatic difluoro analogues of resorcylic acid lactones” (The University of North Carolina at Greensboro, priority 2015, dated 2019).

system: not given; test: not given; details: cited from earlier work

SMILES	stability in plasma
COc1cc(O)c2c(c1)/C=C/C[C@H](O)[C@H](O)C(=O)/C=C\C[C@H](C)OC2=O [(5Z)-7-oxozeaenol]	instability in plasma

biological target: TaK1-TaB1 (TAK-1 enzyme) (Homo sapiens (Human), UniProt O43318); test: TaK1-TaB1 inhibitor assay (IC50 of RAL analogues against TAK-1 enzyme); type: biochemical; details: Table 1, TAK-1 enzyme
Sequence (O43318 other isoform, or with tags, fused parts or gaps): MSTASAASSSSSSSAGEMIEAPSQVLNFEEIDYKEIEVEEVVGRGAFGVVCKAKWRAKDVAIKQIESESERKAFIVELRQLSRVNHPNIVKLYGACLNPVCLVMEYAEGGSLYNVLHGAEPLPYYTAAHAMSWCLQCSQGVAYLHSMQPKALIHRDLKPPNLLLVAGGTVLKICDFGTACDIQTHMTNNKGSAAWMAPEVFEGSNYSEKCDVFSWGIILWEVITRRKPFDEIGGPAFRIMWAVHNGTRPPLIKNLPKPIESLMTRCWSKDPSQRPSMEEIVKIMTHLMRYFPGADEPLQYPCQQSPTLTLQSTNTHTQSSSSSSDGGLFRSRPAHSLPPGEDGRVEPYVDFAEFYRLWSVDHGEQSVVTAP
From the text: IV. TaK1-TaB1 (Transforming Growth Factor-β Activated Linase-1/TAK-1 Binding Protein 1) Inhibitor Assays

IC50 [µM]	SMILES
> 30	COc1cc(O)c2c(c1)/C=C/C[C@@H]1OC(CC(=O)[C@H]1O)C[C@H](C)OC2=O [Compound 9, (1^2S,1^3S,8S,E)-1^3,5^3-Dihydroxy-5^5-methoxy-8-methyl-1^3,1^4,1^5,1^6-tetrahydro-1^2H-7-oxa-1(2,6)-pyrana-5(1,2) benzenacyclononaphan-3-ene-1^4,6-dione]
> 30	C/C=C\C=C/C(=O)[C@@H](O)[C@@H](O)C/C=C/c1cc(OC)cc(OC)c1C(=O)OC [Compound 4, Methyl 2-((1E,4S,5S,7Z,9Z)-4,5-dihydroxy-6-oxoundeca-1,7,9-trien-1-yl)-4,6-dimethoxybenzoate]
0.36	COc1cc(O)c2c(c1Br)/C=C/C[C@H](O)[C@H](O)C(=O)/C=C\C[C@H](C)OC2=O [Compound 7, (3S,5Z,8S,9S,11E)-13-Bromo-8,9,16-trihydroxy-14-methoxy-3-methyl-3,4,9,10-tetrahydro-1H-benzo[c][1]oxacyclotetradecine-1,7(8H)-dione]
2.6	COc1cc2c(c(O)c1Br)C(=O)O[C@@H](C)C/C=C\C(=O)[C@@H](O)[C@@H](O)C/C=C/2 [Compound 6, (3S,5Z,8S,9S,11E)-15-Bromo-8,9,16-trihydroxy-14-methoxy-3-methyl-3,4,9,10-tetrahydro-1H-benzo[c][1]oxacyclotetradecine-1,7(8H)-dione]

SMILES	IC50 [µM]
COc1cc(O)c2c(c1)[C@H]1O[C@@H]1C[C@H](O)[C@H](O)C(=O)CCC[C@H](C)OC2=O [dihydrohypothemycin, reference compound]	> 30
COc1cc(O)c2c(c1)/C=C/C[C@H](O)[C@H](O)C(=O)CCC[C@H](C)OC2=O [LL-Z164-1, reference compound]	2.6
COc1cc(O)c2c(c1)/C=C/C[C@H](O)[C@H](O)[C@@H](O)/C=C/C[C@H](C)OC2=O [zeaenol, reference compound]	10

same assay, conditions: among synthesized analogues

activity in TAK-1 assay	SMILES
relatively active	COC1=CC(=O)C2=C(/C=C/C[C@H](O)[C@H](O)C(=O)/C=C\C[C@H](C)OC2=O)C1(F)F [Compound 5, (3S,5Z,8S,9S,11E)-13,13-Difluoro-8,9-dihydroxy-14-methoxy-3-methyl-3,4,9,10-tetrahydro-1H benzo[c][1]oxacyclotetradecine-1,7,16(8H,13H)-trione]

same assay, conditions: restated in Table 2 beside docking scores

IC50 [µM]	SMILES
> 30	C/C=C\C=C/C(=O)[C@@H](O)[C@@H](O)C/C=C/c1cc(OC)cc(OC)c1C(=O)OC [Compound 4, Methyl 2-((1E,4S,5S,7Z,9Z)-4,5-dihydroxy-6-oxoundeca-1,7,9-trien-1-yl)-4,6-dimethoxybenzoate]
0.38	COc1cc(O)c2c(c1)/C=C/C[C@@H]1OC(C)(C)O[C@@H]1C(=O)/C=C\C[C@H](C)OC2=O [Compound 10, (3aS,5Z,8S,15E,17aS)-11-Hydroxy-13-methoxy-2,2,8-trimethyl-7,8,17,17a-tetrahydro-4H-benzo[c][1,3]dioxolo[4,5-h][1]oxacyclotetradecine-4,10(3aH)-dione]
8.9	COc1c(Br)c(O)c2c(c1Br)/C=C/C[C@H](O)[C@H](O)C(=O)/C=C\C[C@H](C)OC2=O [Compound 8, (3S,5Z,8S,9S,11E)-13,15-Dibromo-8,9,16-trihydroxy-14methoxy-3-methyl-3,4,9,10-tetrahydro-1H-benzo[c][1]oxacyclotetradecine-1,7(8H)-dione]
> 30	COc1cc(O)cc2c1C(=O)O[C@@H](C)CCCCC/C=C/C(=O)C2 [Greensporone C, reference compound]
